Assay [1] addresses Matrix metalloproteinase-9 (Homo sapiens, UniProt P14780). The assay is described as follows: Inhibition of Matrix metalloprotease-9.
Assay [2] has as its target T1, Stromelysin-1 (Homo sapiens, UniProt P08254). The assay is described as follows: Inhibition of Matrix metalloprotease-3 (MMP-3).
Target sequence in this assay (P08254 whole entry): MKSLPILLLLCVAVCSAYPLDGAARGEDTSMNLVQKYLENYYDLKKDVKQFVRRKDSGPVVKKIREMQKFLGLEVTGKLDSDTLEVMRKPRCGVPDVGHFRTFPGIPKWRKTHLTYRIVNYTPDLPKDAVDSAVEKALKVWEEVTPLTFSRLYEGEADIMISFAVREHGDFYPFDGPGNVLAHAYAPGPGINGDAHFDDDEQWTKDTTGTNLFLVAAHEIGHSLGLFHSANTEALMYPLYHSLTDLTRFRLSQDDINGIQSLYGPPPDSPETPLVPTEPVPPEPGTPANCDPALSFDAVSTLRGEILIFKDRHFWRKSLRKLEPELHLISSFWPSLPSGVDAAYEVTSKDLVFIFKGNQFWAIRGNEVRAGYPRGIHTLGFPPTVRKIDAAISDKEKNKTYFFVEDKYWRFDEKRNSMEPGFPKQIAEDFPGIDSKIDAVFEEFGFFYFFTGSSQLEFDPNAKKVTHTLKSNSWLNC
Assay [3] concerns the target 72 kDa type IV collagenase (Homo sapiens, UniProt P08253). Kind of assay: Inhibition of Matrix metalloprotease-2 (MMP-2).
A further assay deals with T2, Interstitial collagenase (Homo sapiens, UniProt P03956).
T2 sequence (P03956 whole entry): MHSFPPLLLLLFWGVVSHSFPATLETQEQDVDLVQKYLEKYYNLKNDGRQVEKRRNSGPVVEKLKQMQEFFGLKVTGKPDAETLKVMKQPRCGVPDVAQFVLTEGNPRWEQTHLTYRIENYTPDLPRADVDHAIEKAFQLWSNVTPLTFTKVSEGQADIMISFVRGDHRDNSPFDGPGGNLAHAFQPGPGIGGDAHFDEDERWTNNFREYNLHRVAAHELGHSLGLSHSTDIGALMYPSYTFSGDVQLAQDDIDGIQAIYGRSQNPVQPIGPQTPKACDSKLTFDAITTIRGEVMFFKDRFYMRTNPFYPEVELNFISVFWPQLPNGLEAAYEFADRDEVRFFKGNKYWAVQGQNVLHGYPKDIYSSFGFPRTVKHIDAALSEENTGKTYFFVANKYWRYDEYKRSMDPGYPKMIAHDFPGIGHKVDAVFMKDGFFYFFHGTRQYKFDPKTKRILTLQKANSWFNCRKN
Kind of assay: Inhibition of Matrix metalloprotease-1 (MMP-1).

The target in assay [4] is T1, Stromelysin-1. The assay is described as follows: Inhibition of Matrix metalloprotease-3 (MMP-3) at 50 uM.
Target sequence in this assay (P08254 100-477 limits assumed): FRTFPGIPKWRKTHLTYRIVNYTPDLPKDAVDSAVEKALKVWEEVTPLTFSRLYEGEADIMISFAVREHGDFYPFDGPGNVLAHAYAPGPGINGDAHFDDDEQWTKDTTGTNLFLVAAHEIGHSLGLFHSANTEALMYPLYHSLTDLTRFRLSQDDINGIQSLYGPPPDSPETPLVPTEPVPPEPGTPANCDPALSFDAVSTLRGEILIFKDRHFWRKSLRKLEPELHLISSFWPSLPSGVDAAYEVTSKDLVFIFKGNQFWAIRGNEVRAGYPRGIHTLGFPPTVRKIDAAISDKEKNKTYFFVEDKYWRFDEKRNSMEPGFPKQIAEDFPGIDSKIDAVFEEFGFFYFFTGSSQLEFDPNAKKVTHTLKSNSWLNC

Experimental findings from ChEMBL document CHEMBL1130526, “Amide surrogates of matrix metalloproteinase inhibitors: Urea and sulfonamide mimics” (Bioorg Med Chem Lett, 1997) are described below.

Usually Ki stands for a dissociation constant, usually derived from enzyme kinetics or from competition with a known ligand. Higher therefore signals a looser hold on the target. As usually defined, the inhibition is the drop in the measured response relative to a control, in per cent.

Sequence of 72 kDa type IV collagenase (P08253 whole entry): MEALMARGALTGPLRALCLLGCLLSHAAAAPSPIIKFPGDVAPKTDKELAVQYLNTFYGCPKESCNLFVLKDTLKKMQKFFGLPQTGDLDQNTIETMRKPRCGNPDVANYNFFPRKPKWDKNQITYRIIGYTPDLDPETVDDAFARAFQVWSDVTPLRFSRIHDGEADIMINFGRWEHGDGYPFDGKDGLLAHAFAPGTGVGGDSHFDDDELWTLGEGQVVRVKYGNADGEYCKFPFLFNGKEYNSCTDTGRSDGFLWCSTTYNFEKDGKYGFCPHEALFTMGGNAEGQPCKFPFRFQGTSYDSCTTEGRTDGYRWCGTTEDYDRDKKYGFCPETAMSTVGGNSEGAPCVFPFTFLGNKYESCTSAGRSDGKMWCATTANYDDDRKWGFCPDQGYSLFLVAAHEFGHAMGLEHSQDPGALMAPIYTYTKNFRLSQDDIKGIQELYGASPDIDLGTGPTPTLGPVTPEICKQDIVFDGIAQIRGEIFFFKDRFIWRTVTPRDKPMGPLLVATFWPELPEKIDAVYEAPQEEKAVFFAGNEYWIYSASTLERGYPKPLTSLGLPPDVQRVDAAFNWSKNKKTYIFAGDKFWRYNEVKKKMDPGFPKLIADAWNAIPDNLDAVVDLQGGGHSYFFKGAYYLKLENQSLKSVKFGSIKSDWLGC
Sequence of Matrix metalloproteinase-9 (P14780 whole entry): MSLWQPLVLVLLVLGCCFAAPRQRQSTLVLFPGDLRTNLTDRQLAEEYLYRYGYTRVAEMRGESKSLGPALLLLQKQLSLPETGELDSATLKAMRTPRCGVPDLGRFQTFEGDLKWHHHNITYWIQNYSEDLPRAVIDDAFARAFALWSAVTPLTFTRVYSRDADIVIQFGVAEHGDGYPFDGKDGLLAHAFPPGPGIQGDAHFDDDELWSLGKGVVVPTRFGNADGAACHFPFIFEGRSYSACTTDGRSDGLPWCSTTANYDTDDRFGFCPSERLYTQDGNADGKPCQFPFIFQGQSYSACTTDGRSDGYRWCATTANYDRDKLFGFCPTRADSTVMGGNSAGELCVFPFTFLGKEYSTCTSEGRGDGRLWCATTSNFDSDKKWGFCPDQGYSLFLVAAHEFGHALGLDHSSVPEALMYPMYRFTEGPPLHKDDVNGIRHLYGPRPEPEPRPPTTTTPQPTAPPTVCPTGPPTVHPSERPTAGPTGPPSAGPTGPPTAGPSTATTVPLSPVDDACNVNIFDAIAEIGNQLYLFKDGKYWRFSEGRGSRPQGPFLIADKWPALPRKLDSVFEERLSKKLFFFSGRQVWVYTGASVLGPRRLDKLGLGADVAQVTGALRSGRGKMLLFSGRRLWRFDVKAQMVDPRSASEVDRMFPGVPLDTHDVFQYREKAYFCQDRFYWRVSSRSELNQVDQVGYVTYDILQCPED

In the case of `CNC(=O)[C@H](Cc1ccc(OC)cc1)NC(=O)[C@@H](CC(=O)NO)CC(C)C`, the Ki (in assay [1]; at Stromelysin-1 [2]) was < 10 nM in each case.

For the compound `CNC(=O)[C@H](Cc1ccc(OC)cc1)NC(=O)[C@@H](CC(=O)O)CC(C)C`, the Ki in assay [1] was found to be 184 nM; in assay [3] it was 860 nM; on Stromelysin-1 [2] it was 29400 nM; at Interstitial collagenase, 336 nM.

With `CCCCCCC(CC(=O)O)S(=O)(=O)N[C@@H](Cc1ccc(OC)cc1)C(=O)NC` (stereo not given in full), the Ki was 290 nM in assay [1], 1300 nM in assay [3] and 11200 nM at Interstitial collagenase. The compound also yielded an inhibition against Stromelysin-1 [4] of 10%.

In the case of `CNC(=O)[C@H](Cc1ccc(OC)cc1)NS(=O)(=O)C(CC(=O)O)CC(C)C` (stereo not given in full), the Ki in assay [1] was 19200 nM; in assay [3], 3000 nM; on Stromelysin-1 [2], 19100 nM; on Interstitial collagenase, > 50000 nM.

Consider `CNC(=O)[C@H](Cc1ccc(OC)cc1)NS(=O)(=O)C(CCc1ccccc1)CC(=O)NO` (stereo not given in full), for which the Ki in assay [1] was 1500 nM; in assay [3], 550 nM; at Stromelysin-1 [2] it was 2200 nM; at Interstitial collagenase, 640 nM.

On to `CNC(=O)[C@H](Cc1ccc(OC)cc1)NS(=O)(=O)C(CC(=O)NO)CC(C)C` (stereo not given in full), for which the Ki in assay [1] amounted to 620 nM; in assay [3] it was 620 nM; at Stromelysin-1 [2], 4100 nM; at Interstitial collagenase, 770 nM.

Consider `CCCCCCC(CC(=O)NO)S(=O)(=O)N[C@@H](Cc1ccc(OC)cc1)C(=O)NC` (stereo not given in full), for which the Ki in assay [1] amounted to 210 nM; in assay [3], 430 nM; at Stromelysin-1 [2], 4000 nM; on Interstitial collagenase it was 2300 nM.

Regarding `CNC(=O)[C@H](Cc1ccc(OC)cc1)NS(=O)(=O)C(CCc1ccccc1)CC(=O)O` (stereo not given in full), the Ki is 9900 nM in assay [1], 5300 nM in assay [3] and 22400 nM on Interstitial collagenase. The compound further had an inhibition at Stromelysin-1 [4] of 10%.
